Data from EP0947200B1, “Compositions comprising Cetrorelix acetate for the treatment of female infertility and gonadal protection” (Zentaris IVF GmbH, priority 1993, dated 2015).

How the values were obtained:
[1] = type: physicochemical
Method: Gemäß vorliegender Anmeldung soll der Wirkstoff subcutan in einer Dosis von 0,1 bis 20 mg appliziert werden können. Die wässrigen Lösungen des Dekapeptids sind instabil, eine Autoklavierung im Endbehälter ist nicht möglich. […] Um eine injizierbare Lösung zu erhalten, war daher die Entwicklung eines Lyophilisats erforderlich. Allerdings ist die Menge des Wirkstoffes in der zu lyophilisierenden Lösung so gering, dass bei niedrigen Wirkstoffkonzentrationen nur ein lockerer Flaum an der Glaswand der Ampulle nach der Trocknung der hilfsstofffreien Lösung resultiert, der mit dem zur Sterilisierung benutzten Wasserdampfstrom aus dem Vial ausgetragen wird. Es ist also erforderlich, einen Gerüstbildner einzusetzen, der einen stabilen Kuchen bildet. Bei hohen Konzentrationen kann auf diesen Hilfsstoff verzichtet werden. Als Gerüstbildner kommen folgende Hilfsstoffe infrage: Hexite, insbesondere Mannit, Glucit, Sorbit, wie D-Sorbit, Dulcit, Allit, Altrit (zum Beispiel D- und L-Altrit), Idit (zum Beispiel D- und L-Idit), deren optisch aktive Formen (D- beziehungsweise L-Formen) sowie die entsprechenden Racemate. Insbesondere wird Mannit, wie D-Mannit, L-Mannit, DL-Mannit, Sorbit und/oder Dulcit verwendet, und zwar hiervon vorzugsweise D-Mannit. Als Hexit können auch Mischungen der genannten Hexite verwendet werden, zum Beispiel Mischungen von Mannit und Sorbit und/oder Dulcit. […]

[2] = Solubility and hydrolytic stability in acetic acid; type: physicochemical
From the text: Überraschenderweise stellte sich nun heraus, daß man Cetrorelix in 30 %iger VolumenNolumen Essigsäure gut lösen kann. Diese Lösung wird anschließend auf eine Endkonzentration von 3 % Cetrorelix mit Wasser für Injektionszwecke aufgefüllt und Mannit hinzugegeben. […] Lösungen, die nach dieser Methode hergestellt werden, […]

[3] = test system: endogene Hormonproduktion (LH-FSH, Estradiol); type: in vivo, Patientinnen
From the text: Es hat sich nun herausgestellt, daß der Antagonist Cetrorelix gerade bei dieser Behandlung folgende Vorteile aufweist:
Um eine totale Suppression zu erreichen, genügen bei der Behandlung mit Cetrorelix eine Behandlungsdauer von 5 Tagen. […] Darüber hinaus läßt sich in der 2. Therapiephase, der Ovulationsauslösephase, HMG einsparen. Dies stellt einen nicht unbeträchtlichen Kostenvorteil dieser in-vitro-Fertilisationsbehandlung dar. Die in-vitro-Fertilisation wird beispielsweise beim Vorliegen einer Tubenanomalie eingesetzt. Für diese Therapie ist es notwendig, den Zyklus genau zu kontrollieren und den Zeitpunkt der Ovulation möglichst genau festzulegen. Bisher wurde dies nur eingeschränkt erreicht, da durch Stimulation mit HMG/HCG der präovulatorische LH-Anstieg oft zu früh auftrat oder nicht lange genug aufrechterhalten wurde. Es ist jedoch von entscheidender Bedeutung für den Behandlungserfolg, diesen verfrühten Anstieg zu verhindern, um den Befruchtungszeitpunkt genau festlegen zu können. Dadurch wird die körperliche und psychische Belastung der Patientinnen reduziert und die Kliniklogistik optimal eingesetzt. […]

Substance: Cetrorelix
- Stabilität der wässrigen Lösungen [1]: instabil
- Verhalten unter arzneibuchüblicher Sterilisation ([1]; pharmacopoeial sterilisation (autoclaving in final container)): neigt unter arzneibuchüblicher Sterilisation zur Zersetzung
- Hydrolyse der endständigen Amidgruppe ([2]; acid medium (acetic acid solution)): nicht festgestellt
- Löslichkeit ([2]; in 30 % (volume/volume) acetic acid): gut lösen
- Behandlungsdauer, um eine totale Suppression zu erreichen ([3]; female patients, treatment of infertility): 5 Tagen
- Hyperstimulationssyndrom ([3]; in vivo): kann nicht auftreten
